# Reference: patent US7695930B2, “Method for the detection, identification and/or quantification of microoganisms with peptidase activity using phenoxazinone derivatives as enzyme substrates” (Biomerieux, priority 2003, dated 2010)
# What was measured:
# Test in all cases: Leucine-peptidase detection on agar medium (Example 11); for color of the colony: key: B corresponds to fluorescent blue; R corresponds to pink
# Format in all cases: cell-based
# Klebsellia pneumoniae = system: Klebsellia pneumoniae; for color of the colony: key: B corresponds to fluorescent blue; R corresponds to pink
# Procedure: (§1) The detection medium was prepared by mixing 1.4 g of biogelytone (bioMérieux), 0.84 g of meat extract (bioMérieux), 2.24 g of NaCl (Merck), 280 μl of a solution of IPTG (isopropylthio-β-D-galactopyranoside, BIOSYNTH) in water (concentration 10 g/l) and 4.2 g of European agar (bioMérieux).
# (§2) The substrate of the invention obtained in Example 2, in which the amino acid is leucine (leucine-9-aminobenzo[a]phenoxazin-5-one or Leu-ABP), or else a substrate of the prior art, which is leucine-aminomethylcoumarin (Leu-AMC, BACHEM), was then added in the following way: 280 ml of osmosed water were added to the medium, and the mixture was melted in a waterbath at 100° C. The mixture was autoclaved for 15 min at 121° C. and cooled to 50° C. in a waterbath.
# (§3) The medium was then poured into Petri dishes.
# (§4) The coloration of these colonies, the diffusion, and also the intensity of this coloration were noted.
# (§5) The results were expressed as intensity of coloration using an arbitrary scale ranging from 0 to 4 as a basis and also as diffusion also using an arbitrary scale ranging from 0 to 4 as a basis.
# Serratia marcescens = system: Serratia marcescens; for color of the colony: key: B corresponds to fluorescent blue; R corresponds to pink
# Procedure: as §1, §2, §3, §4, §5
# Staphylococcus aureus = system: Staphylococcus aureus; for color of the colony: key: B corresponds to fluorescent blue; R corresponds to pink
# Procedure: as §1, §2, §3, §4, §5
# Candida albicans = system: Candida albicans; for color of the colony: key: B corresponds to fluorescent blue; R corresponds to pink
# Procedure: as §1, §2, §3, §4, §5
# Enterobacter cloaccae = system: Enterobacter cloaccae; for color of the colony: key: B corresponds to fluorescent blue; R corresponds to pink
# Procedure: as §1, §2, §3, §4, §5
# Pseudomonas aeruginosa = system: Pseudomonas aeruginosa; for color of the colony: key: B corresponds to fluorescent blue; R corresponds to pink
# Procedure: as §1, §2, §3, §4, §5
substance,measurement,setting,value
leucine-9-aminobenzo[a]phenoxazin-5-one [Leu-ABP],color of the colony,"Klebsellia pneumoniae; 24 h, 25 mg/l",R
same,growth diameter,"Klebsellia pneumoniae; 24 h, 25 mg/l",1.8 mm
same,"intensity of coloration, scale 0 to 4","Klebsellia pneumoniae; 24 h, 25 mg/l",1.5
same,color of the colony,"Klebsellia pneumoniae; 24 h, 50 mg/l",R
same,growth diameter,"Klebsellia pneumoniae; 24 h, 50 mg/l",1.7 mm
same,"intensity of coloration, scale 0 to 4","Klebsellia pneumoniae; 24 h, 50 mg/l",1.5
same,color of the colony,"Klebsellia pneumoniae; 24 h, 100 mg/l",R
same,growth diameter,"Klebsellia pneumoniae; 24 h, 100 mg/l",1.7 mm
same,"intensity of coloration, scale 0 to 4","Klebsellia pneumoniae; 24 h, 100 mg/l",1.5
same,color of the colony,"Klebsellia pneumoniae; 24 h, 200 mg/l",R
same,growth diameter,"Klebsellia pneumoniae; 24 h, 200 mg/l",1.7 mm
same,"intensity of coloration, scale 0 to 4","Klebsellia pneumoniae; 24 h, 200 mg/l",2
same,color of the colony,"Klebsellia pneumoniae; 24 h, 400 mg/l",R
same,growth diameter,"Klebsellia pneumoniae; 24 h, 400 mg/l",1.7 mm
same,"intensity of coloration, scale 0 to 4","Klebsellia pneumoniae; 24 h, 400 mg/l",2.5
same,color of the colony,"Klebsellia pneumoniae; 48 h, 25 mg/l",R
same,growth diameter,"Klebsellia pneumoniae; 48 h, 25 mg/l",1.8 mm
same,"intensity of coloration, scale 0 to 4","Klebsellia pneumoniae; 48 h, 25 mg/l",2
same,color of the colony,"Klebsellia pneumoniae; 48 h, 50 mg/l",R
same,growth diameter,"Klebsellia pneumoniae; 48 h, 50 mg/l",1.7 mm
same,"intensity of coloration, scale 0 to 4","Klebsellia pneumoniae; 48 h, 50 mg/l",2.5
same,color of the colony,"Klebsellia pneumoniae; 48 h, 100 mg/l",R
same,growth diameter,"Klebsellia pneumoniae; 48 h, 100 mg/l",1.7 mm
same,"intensity of coloration, scale 0 to 4","Klebsellia pneumoniae; 48 h, 100 mg/l",1.5
same,color of the colony,"Klebsellia pneumoniae; 48 h, 200 mg/l",R
same,growth diameter,"Klebsellia pneumoniae; 48 h, 200 mg/l",1.7 mm
same,"intensity of coloration, scale 0 to 4","Klebsellia pneumoniae; 48 h, 200 mg/l",1
same,color of the colony,"Klebsellia pneumoniae; 48 h, 400 mg/l",R
same,growth diameter,"Klebsellia pneumoniae; 48 h, 400 mg/l",1.8 mm
same,"intensity of coloration, scale 0 to 4","Klebsellia pneumoniae; 48 h, 400 mg/l",1
same,color of the colony,"Serratia marcescens; 24 h, 25 mg/l",R
same,growth diameter,"Serratia marcescens; 24 h, 25 mg/l",0.5 mm
same,"intensity of coloration, scale 0 to 4","Serratia marcescens; 24 h, 25 mg/l",0.5
same,color of the colony,"Serratia marcescens; 24 h, 50 mg/l",R
same,growth diameter,"Serratia marcescens; 24 h, 50 mg/l",0.4 mm
same,"intensity of coloration, scale 0 to 4","Serratia marcescens; 24 h, 50 mg/l",1
same,color of the colony,"Serratia marcescens; 24 h, 100 mg/l",R
same,growth diameter,"Serratia marcescens; 24 h, 100 mg/l",0.4 mm
same,"intensity of coloration, scale 0 to 4","Serratia marcescens; 24 h, 100 mg/l",0.25
same,growth diameter,"Serratia marcescens; 24 h, 200 mg/l",0.4 mm
same,growth diameter,"Serratia marcescens; 24 h, 400 mg/l",0.4 mm
same,color of the colony,"Serratia marcescens; 48 h, 25 mg/l",R
same,growth diameter,"Serratia marcescens; 48 h, 25 mg/l",0.7 mm
same,"intensity of coloration, scale 0 to 4","Serratia marcescens; 48 h, 25 mg/l",2.5
same,color of the colony,"Serratia marcescens; 48 h, 50 mg/l",R
same,growth diameter,"Serratia marcescens; 48 h, 50 mg/l",0.5 mm
same,"intensity of coloration, scale 0 to 4","Serratia marcescens; 48 h, 50 mg/l",3
same,color of the colony,"Serratia marcescens; 48 h, 100 mg/l",R
same,growth diameter,"Serratia marcescens; 48 h, 100 mg/l",0.5 mm
same,"intensity of coloration, scale 0 to 4","Serratia marcescens; 48 h, 100 mg/l",1.5
same,color of the colony,"Serratia marcescens; 48 h, 200 mg/l",R
same,growth diameter,"Serratia marcescens; 48 h, 200 mg/l",0.5 mm
same,"intensity of coloration, scale 0 to 4","Serratia marcescens; 48 h, 200 mg/l",1
same,color of the colony,"Serratia marcescens; 48 h, 400 mg/l",R
same,growth diameter,"Serratia marcescens; 48 h, 400 mg/l",0.5 mm
same,"intensity of coloration, scale 0 to 4","Serratia marcescens; 48 h, 400 mg/l",0.5
same,growth diameter,"Staphylococcus aureus; 24 h, 25 mg/l",0.3 mm
same,growth diameter,"Staphylococcus aureus; 24 h, 50 mg/l",0.2 mm
same,color of the colony,"Staphylococcus aureus; 48 h, 25 mg/l",R
same,growth diameter,"Staphylococcus aureus; 48 h, 25 mg/l",0.7 mm
same,"intensity of coloration, scale 0 to 4","Staphylococcus aureus; 48 h, 25 mg/l",0.25
same,growth diameter,"Staphylococcus aureus; 48 h, 50 mg/l",0.2 mm
same,growth diameter,"Candida albicans; 24 h, 25 mg/l",0.3 mm
same,color of the colony,"Candida albicans; 48 h, 25 mg/l",R
same,growth diameter,"Candida albicans; 48 h, 25 mg/l",0.5 mm
same,"intensity of coloration, scale 0 to 4","Candida albicans; 48 h, 25 mg/l",0.25
same,growth diameter,"Candida albicans; 48 h, 50 mg/l",0.3 mm
same,color of the colony,"Enterobacter cloaccae; 24 h, 25 mg/l",R
same,growth diameter,"Enterobacter cloaccae; 24 h, 25 mg/l",0.7 mm
same,"intensity of coloration, scale 0 to 4","Enterobacter cloaccae; 24 h, 25 mg/l",1.5
same,color of the colony,"Enterobacter cloaccae; 24 h, 50 mg/l",R
same,growth diameter,"Enterobacter cloaccae; 24 h, 50 mg/l",0.5 mm
same,"intensity of coloration, scale 0 to 4","Enterobacter cloaccae; 24 h, 50 mg/l",2.5
same,color of the colony,"Enterobacter cloaccae; 24 h, 100 mg/l",R
same,growth diameter,"Enterobacter cloaccae; 24 h, 100 mg/l",1 mm
same,"intensity of coloration, scale 0 to 4","Enterobacter cloaccae; 24 h, 100 mg/l",3
same,color of the colony,"Enterobacter cloaccae; 24 h, 200 mg/l",R
same,growth diameter,"Enterobacter cloaccae; 24 h, 200 mg/l",1.5 mm
same,"intensity of coloration, scale 0 to 4","Enterobacter cloaccae; 24 h, 200 mg/l",3
same,color of the colony,"Enterobacter cloaccae; 24 h, 400 mg/l",R
same,growth diameter,"Enterobacter cloaccae; 24 h, 400 mg/l",1.5 mm
same,"intensity of coloration, scale 0 to 4","Enterobacter cloaccae; 24 h, 400 mg/l",3
same,color of the colony,"Enterobacter cloaccae; 48 h, 25 mg/l",R
same,growth diameter,"Enterobacter cloaccae; 48 h, 25 mg/l",0.7 mm
same,"intensity of coloration, scale 0 to 4","Enterobacter cloaccae; 48 h, 25 mg/l",2.5
same,color of the colony,"Enterobacter cloaccae; 48 h, 50 mg/l",R
same,growth diameter,"Enterobacter cloaccae; 48 h, 50 mg/l",0.5 mm
same,"intensity of coloration, scale 0 to 4","Enterobacter cloaccae; 48 h, 50 mg/l",3
same,color of the colony,"Enterobacter cloaccae; 48 h, 100 mg/l",R
same,growth diameter,"Enterobacter cloaccae; 48 h, 100 mg/l",1.3 mm
same,"intensity of coloration, scale 0 to 4","Enterobacter cloaccae; 48 h, 100 mg/l",3
same,color of the colony,"Enterobacter cloaccae; 48 h, 200 mg/l",R
same,growth diameter,"Enterobacter cloaccae; 48 h, 200 mg/l",1.5 mm
same,"intensity of coloration, scale 0 to 4","Enterobacter cloaccae; 48 h, 200 mg/l",3
same,color of the colony,"Enterobacter cloaccae; 48 h, 400 mg/l",R
same,growth diameter,"Enterobacter cloaccae; 48 h, 400 mg/l",1.7 mm
same,"intensity of coloration, scale 0 to 4","Enterobacter cloaccae; 48 h, 400 mg/l",3
same,growth diameter,"Pseudomonas aeruginosa; 24 h, 25 mg/l",2 mm
same,color of the colony,"Pseudomonas aeruginosa; 24 h, 50 mg/l",R
same,growth diameter,"Pseudomonas aeruginosa; 24 h, 50 mg/l",2 mm
same,"intensity of coloration, scale 0 to 4","Pseudomonas aeruginosa; 24 h, 50 mg/l",0.75
same,color of the colony,"Pseudomonas aeruginosa; 24 h, 100 mg/l",R
same,growth diameter,"Pseudomonas aeruginosa; 24 h, 100 mg/l",2 mm
same,"intensity of coloration, scale 0 to 4","Pseudomonas aeruginosa; 24 h, 100 mg/l",0.75
same,color of the colony,"Pseudomonas aeruginosa; 24 h, 200 mg/l",R
same,growth diameter,"Pseudomonas aeruginosa; 24 h, 200 mg/l",2 mm
same,"intensity of coloration, scale 0 to 4","Pseudomonas aeruginosa; 24 h, 200 mg/l",0.5
same,color of the colony,"Pseudomonas aeruginosa; 24 h, 400 mg/l",R
same,growth diameter,"Pseudomonas aeruginosa; 24 h, 400 mg/l",2 mm
same,"intensity of coloration, scale 0 to 4","Pseudomonas aeruginosa; 24 h, 400 mg/l",0.5
same,color of the colony,"Pseudomonas aeruginosa; 48 h, 25 mg/l",R
same,growth diameter,"Pseudomonas aeruginosa; 48 h, 25 mg/l",2 mm
same,"intensity of coloration, scale 0 to 4","Pseudomonas aeruginosa; 48 h, 25 mg/l",1
same,color of the colony,"Pseudomonas aeruginosa; 48 h, 50 mg/l",R
same,growth diameter,"Pseudomonas aeruginosa; 48 h, 50 mg/l",2 mm
same,"intensity of coloration, scale 0 to 4","Pseudomonas aeruginosa; 48 h, 50 mg/l",2.5
same,color of the colony,"Pseudomonas aeruginosa; 48 h, 100 mg/l",R
same,growth diameter,"Pseudomonas aeruginosa; 48 h, 100 mg/l",2 mm
same,"intensity of coloration, scale 0 to 4","Pseudomonas aeruginosa; 48 h, 100 mg/l",2.5
same,color of the colony,"Pseudomonas aeruginosa; 48 h, 200 mg/l",R
same,growth diameter,"Pseudomonas aeruginosa; 48 h, 200 mg/l",2 mm
same,"intensity of coloration, scale 0 to 4","Pseudomonas aeruginosa; 48 h, 200 mg/l",2
same,color of the colony,"Pseudomonas aeruginosa; 48 h, 400 mg/l",R
same,growth diameter,"Pseudomonas aeruginosa; 48 h, 400 mg/l",2 mm
same,"intensity of coloration, scale 0 to 4","Pseudomonas aeruginosa; 48 h, 400 mg/l",0.5
